The text below walks through data of patent publication US11053213B2, “Pharmaceutical compounds” (ALMAC DISCOVERY LIMITED, priority 2016, dated 2021).

For this assay, the target named is USP19 (Homo sapiens (Human), UniProt O94966). Kind of assay: USP19 activity assay (fluorescence polarisation, Ubiquitin-Lys-TAMRA substrate). Format: biochemical. The conditions noted are these: full-length USP19 2.5 nM, 30 min pre-incubation, Ub substrate 500 nM; average of at least two duplicate experiments. On the procedure: Unless otherwise stated, all other reagents were purchased from Sigma. Enzymatic reactions were conducted in black flat bottom polystyrene 384-well plates (Nunc) and 30 μL total volume. […] Inhibitors were stored as 10 mM DMSO stocks in an inert environment (low humidity, dark, low oxygen, room temperature) using the Storage Pod System and serial dilutions were prepared in buffer just prior to the assay (from 200 μM to 2 pM, 8-18 data point curve). Following incubation at RT for 30 min, the enzymatic reactions were initiated by dispensing the Ub substrate (500 nM, 10 μL). FP was measured every 15 min over a period of 90 min (within the linear range of the assay) using a Synergy 4 plate reader (BioTek) exciting at 530 nm and measuring the amount of parallel and perpendicular light at 575 nm. The FP signal was subsequently normalised to the no compound control.
Chain of USP19 (O94966 whole entry): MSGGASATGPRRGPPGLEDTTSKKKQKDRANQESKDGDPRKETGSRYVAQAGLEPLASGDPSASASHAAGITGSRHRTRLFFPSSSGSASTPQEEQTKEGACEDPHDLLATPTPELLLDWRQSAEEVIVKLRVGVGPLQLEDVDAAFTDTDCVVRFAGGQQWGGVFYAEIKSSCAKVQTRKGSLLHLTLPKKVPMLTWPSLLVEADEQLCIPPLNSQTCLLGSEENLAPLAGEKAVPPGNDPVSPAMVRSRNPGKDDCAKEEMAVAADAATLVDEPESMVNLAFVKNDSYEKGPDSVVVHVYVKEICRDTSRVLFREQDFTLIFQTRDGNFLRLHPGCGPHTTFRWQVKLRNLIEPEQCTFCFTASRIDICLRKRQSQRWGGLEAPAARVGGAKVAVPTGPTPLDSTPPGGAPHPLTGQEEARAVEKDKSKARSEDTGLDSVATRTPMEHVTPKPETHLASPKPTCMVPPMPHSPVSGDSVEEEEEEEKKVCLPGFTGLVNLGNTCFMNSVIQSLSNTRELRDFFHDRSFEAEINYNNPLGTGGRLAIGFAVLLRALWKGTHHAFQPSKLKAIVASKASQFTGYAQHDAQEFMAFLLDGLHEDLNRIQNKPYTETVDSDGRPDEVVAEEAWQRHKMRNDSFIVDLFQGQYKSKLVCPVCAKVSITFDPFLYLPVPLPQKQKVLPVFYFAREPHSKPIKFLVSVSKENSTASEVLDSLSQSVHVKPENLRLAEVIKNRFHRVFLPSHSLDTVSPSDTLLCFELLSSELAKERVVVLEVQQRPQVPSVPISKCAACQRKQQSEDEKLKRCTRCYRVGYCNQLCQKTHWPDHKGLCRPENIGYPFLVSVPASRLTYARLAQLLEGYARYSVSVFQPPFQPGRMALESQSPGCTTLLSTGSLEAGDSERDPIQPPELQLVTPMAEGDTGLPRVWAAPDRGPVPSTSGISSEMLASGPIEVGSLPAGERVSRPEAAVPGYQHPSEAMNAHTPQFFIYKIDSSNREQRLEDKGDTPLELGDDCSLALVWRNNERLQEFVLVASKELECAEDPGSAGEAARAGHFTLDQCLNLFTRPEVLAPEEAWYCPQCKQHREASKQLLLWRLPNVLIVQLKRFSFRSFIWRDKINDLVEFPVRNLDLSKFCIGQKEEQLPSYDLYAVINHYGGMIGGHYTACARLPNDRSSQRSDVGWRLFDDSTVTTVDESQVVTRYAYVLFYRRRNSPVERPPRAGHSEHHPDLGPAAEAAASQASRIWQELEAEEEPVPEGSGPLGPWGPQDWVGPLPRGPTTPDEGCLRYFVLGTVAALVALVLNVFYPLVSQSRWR

On to `C=CC[C@H](CC1CCCCC1)C(=O)N1CCC(O)(Cn2cnc(-c3ccccc3F)cc2=O)CC1` [Example 110, (R)-3-((1-(2-(Cyclohexylmethyl)pent-4-enoyl)-4-hydroxypiperidin-4-yl)methyl)-6-(2-fluorophenyl)pyrimidin-4(3H)-one], for which the IC50 fell in the range of 0.5 to 5 µM.

On to `C[C@H](CC(=O)N1CCC(O)(Cn2cc(C(=O)N3CCC(CO)CC3)c(-c3ccccc3)cc2=O)CC1)c1ccccc1` [Example 117, (R)-1-((4-Hydroxy-1-(3-phenylbutanoyl)piperidin-4-yl)methyl)-5-(4-(hydroxymethyl)piperidine-1-carbonyl)-4-phenylpyridin-2(1H)-one], for which the IC50 lay within 0.5 to 5 µM.

For the molecule `C[C@H](CC(F)(F)F)C(=O)N1CC[C@@](O)(Cn2cc(C(=O)N(C)C)c(-c3ccccc3)cc2=O)C(C)(C)C1` [Example 204, 1-(((S)-4-Hydroxy-3,3-dimethyl-1-((R)-4,4,4-trifluoro-2-methylbutanoyl)piperidin-4-yl)methyl)-N,N-dimethyl-6-oxo-4-phenyl-1,6-dihydropyridine-3-carboxamide], the IC50 lay in the range of 0.5 to 5 µM.

For `C[C@H](CC(=O)N1CCC(O)(Cn2cc(C(=O)N3CCNCC3)c(-c3ccccc3)cc2=O)CC1)c1ccccc1` [Example 94, (R)-1-((4-Hydroxy-1-(3-phenylbutanoyl)piperidin-4-yl)methyl)-4-phenyl-5-(piperazine-1-carbonyl)pyridin-2(1H)-one], the IC50 lay in the range of 0.5 to 5 µM.

For the molecule `CN(C)C(=O)c1cn(CC2(O)CCN(C(=O)c3cc[nH]n3)CC23CCCC3)c(=O)cc1-c1ccccc1` (centres unmarked) [Example 187, 1-((10-Hydroxy-7-(1H-pyrazole-3-carbonyl)-7-azaspiro[4.5]decan-10-yl)methyl)-N,N-dimethyl-6-oxo-4-phenyl-1,6-dihydropyridine-3-carboxamide], the IC50 is 50 to 250 µM.

With `C=C1CCC(C)(C(=O)N2CCC(O)(Cn3cnc(-c4ccccc4F)cc3=O)CC2)CC1` [Example 56, 6-(2-Fluorophenyl)-3-((4-hydroxy-1-(1-methyl-4-methylenecyclohexanecarbonyl)piperidin-4-yl)methyl)pyrimidin-4(3H)-one], the 50% inhibitory concentration (IC50) lay in the range of 5 to 50 µM.

Turning to `CN(C)C(=O)c1cn(CC2(O)CCN(C(=O)C(O)Cc3ccccc3)CC23CCCC3)c(=O)cc1-c1ccccc1` (centres unmarked) [Example 203, 1-((10-Hydroxy-7-(2-hydroxy-3-phenylpropanoyl)-7-azaspiro[4.5]decan-10-yl)methyl)-N,N-dimethyl-6-oxo-4-phenyl-1,6-dihydropyridine-3-carboxamide], the IC50 lay in the range of 0.5 to 5 µM.

Regarding `C[C@H](CC(F)(F)F)C(=O)N1CC[C@@](O)(Cn2cc(C(=O)N3CCOCC3)c(-c3ccccc3)cc2=O)C2(CCCC2)C1` [Example 250, 1-(((S)-10-Hydroxy-7-((R)-4,4,4-trifluoro-2-methylbutanoyl)-7-azaspiro[4.5]decan-10-yl)methyl)-5-(morpholine-4-carbonyl)-4-phenylpyridin-2(1H)-one], the IC50 was below 0.5 µM.

For the molecule `C[C@H](CC1CCCCC1)C(=O)N1CC[C@@](O)(Cn2cc(C(=O)N(C)C)c(-c3ccccc3F)cc2=O)C(C)(C)C1` [Example 205, 1-(((S)-1-((R)-3-Cyclohexyl-2-methylpropanoyl)-4-hydroxy-3,3-dimethylpiperidin-4-yl)methyl)-4-(2-fluorophenyl)-N,N-dimethyl-6-oxo-1,6-dihydropyridine-3-carboxamide], the IC50 was below 0.5 µM.

Regarding `CC(C)(CC(=O)N1CCC(O)(Cn2cnc(-c3ccccc3F)cc2=O)C(C)(C)C1)c1ccccc1` (racemic) [Example 70, (R,S)-6-(2-Fluorophenyl)-3-((4-hydroxy-3,3-dimethyl-1-(3-methyl-3-phenylbutanoyl)piperidin-4-yl)methyl)pyrimidin-4(3H)-one], the IC50 lay in the range of 5 to 50 µM.

As for `CN(C)C(=O)c1cn(CC2(O)CCN(C(=O)C3CC(C(F)(F)F)C3)CC23CCCC3)c(=O)cc1-c1ccccc1` (centres unmarked) [Example 229, 1-((10-Hydroxy-7-(3-(trifluoromethyl)cyclobutane-1-carbonyl)-7-azaspiro[4.5]decan-10-yl)methyl)-N,N-dimethyl-6-oxo-4-phenyl-1,6-dihydropyridine-3-carboxamide], the IC50 was 5 to 50 µM.

Consider `O=C(CCc1ccccc1)N1CCC(O)(Cn2cnc(-c3ccccc3F)cc2=O)CC1` [Example 2, 6-(2-Fluorophenyl)-3-((4-hydroxy-1-(3-phenylpropanoyl)piperidin-4-yl)methyl)pyrimidin-4(3H)-one], for which the half-maximal inhibitory concentration (IC50) fell in the range of 50 to 250 µM.

As for `C[C@H](CC(=O)N1CCC(O)(Cn2ccc(-c3ccccc3)cc2=O)CC1)c1ccccc1` [Example 27, (R)-1-((4-Hydroxy-1-(3-phenylbutanoyl)piperidin-4-yl)methyl)-4-phenylpyridin-2(1H)-one], the IC50 lay in the range of 50 to 250 µM.

Turning to `C[C@H](CC1CCCCC1)C(=O)N1CCC(O)(Cn2cnc(-c3ccccc3F)cc2=O)CC1` [Example 39, (R)-3-((1-(3-Cyclohexyl-2-methylpropanoyl)-4-hydroxypiperidin-4-yl)methyl)-6-(2-fluorophenyl)pyrimidin-4(3H)-one], the IC50 lay in the range of 5 to 50 µM.

Regarding `C[C@H](CC1CCCCC1)C(=O)N1CCC(O)(Cn2cc(C(=O)N(C)C)c(-c3ccsc3)cc2=O)C2(CCCC2)C1` (stereo partly drawn) [Example 155, 1-((7-((R)-3-Cyclohexyl-2-methylpropanoyl)-10-hydroxy-7-azaspiro[4.5]decan-10-yl)methyl)-N,N-dimethyl-6-oxo-4-(thiophen-3-yl)-1,6-dihydropyridine-3-carboxamide], the IC50 is below 0.5 µM.

Turning to `CN(C)C(=O)c1cn(CC2(O)CCN(C(=O)[C@@H]3C[C@@H]3c3ccccc3)CC23CCCC3)c(=O)cc1-c1ccccc1` (stereo partly drawn) [Example 174, 1-((10-Hydroxy-7-((1R,2S)-2-phenylcyclopropane-1-carbonyl)-7-azaspiro[4.5]decan-10-yl)methyl)-N,N-dimethyl-6-oxo-4-phenyl-1,6-dihydropyridine-3-carboxamide], the IC50 is below 0.5 µM.

Regarding `CC(OC1CCCCC1)C(=O)N1CCC(O)(Cn2cnc(-c3ccccc3F)cc2=O)C(C)(C)C1` (centres unmarked) [Example 126, 3-((1-(2-(Cyclohexyloxy)propanoyl)-4-hydroxy-3,3-dimethylpiperidin-4-yl)methyl)-6-(2-fluorophenyl)pyrimidin-4(3H)-one], the IC50 lay within 50 to 250 µM.

For `C[C@H](CC1CCCCC1)C(=O)N1CCC(O)(Cn2cc(C(=O)N3CCOCC3)c(-c3ccccc3)cc2=O)C(C)(C)C1` (stereo partly drawn) [Example 168, 1-((1-((R)-3-Cyclohexyl-2-methylpropanoyl)-4-hydroxy-3,3-dimethylpiperidin-4-yl)methyl)-5-(morpholine-4-carbonyl)-4-phenylpyridin-2(1H)-one], the IC50 is below 0.5 µM.

Turning to `C[C@H](CC(F)(F)F)C(=O)N1CC[C@@](O)(Cn2cc(C(=O)N3CCN(C)CC3)c(-c3ccccc3)cc2=O)C2(CCCC2)C1` [Example 251, 1-(((S)-10-Hydroxy-7-((R)-4,4,4-trifluoro-2-methylbutanoyl)-7-azaspiro[4.5]decan-10-yl)methyl)-5-(4-methylpiperazine-1-carbonyl)-4-phenylpyridin-2(1H)-one], the IC50 is below 0.5 µM.

As for `C[C@H](CC(=O)N1CCC(O)(Cn2cc(C(=O)N3CCC(O)CC3)c(-c3ccccc3)cc2=O)CC1)c1ccccc1` [Example 62, (R)-1-((4-Hydroxy-1-(3-phenylbutanoyl)piperidin-4-yl)methyl)-5-(4-hydroxypiperidine-1-carbonyl)-4-phenylpyridin-2(1H)-one], the IC50 is 0.5 to 5 µM.

Consider `CN(C)C(=O)c1cn(CC2(O)CCN(C(=O)C3(C)CCCCC3)CC23CCCC3)c(=O)cc1-c1ccccc1` (centres unmarked) [Example 176, 1-((10-Hydroxy-7-(1-methylcyclohexane-1-carbonyl)-7-azaspiro[4.5]decan-10-yl)methyl)-N,N-dimethyl-6-oxo-4-phenyl-1,6-dihydropyridine-3-carboxamide], for which the IC50 is 5 to 50 µM.

For the molecule `COc1ccccc1-c1cc(=O)n(CC2(O)CCN(C(=O)C[C@@H](C)c3ccccc3)CC2)cn1` [Example 17, (R)-3-((4-Hydroxy-1-(3-phenylbutanoyl)piperidin-4-yl)methyl)-6-(2-methoxyphenyl)pyrimidin-4(3H)-one], the IC50 lay in the range of 5 to 50 µM.

Consider `C[C@H](CC1CCCCC1)C(=O)N1CC[C@@](O)(Cn2cc(C(=O)N(C)C)c(C3CC3)cc2=O)C2(CCCC2)C1` [Example 232, 1-(((S)-7-((R)-3-Cyclohexyl-2-methylpropanoyl)-10-hydroxy-7-azaspiro[4.5]decan-10-yl)methyl)-4-cyclopropyl-N,N-dimethyl-6-oxo-1,6-dihydropyridine-3-carboxamide], for which the IC50 is below 0.5 µM.

Take `CC[C@@H](C)C(=O)N1CCC(O)(Cn2cc(C(=O)N(C)C)c(-c3ccccc3)cc2=O)C2(CCCC2)C1` (stereo partly drawn) [Example 148, 1-((10-Hydroxy-7-((R)-2-methylbutanoyl)-7-azaspiro[4.5]decan-10-yl)methyl)-N,N-dimethyl-6-oxo-4-phenyl-1,6-dihydropyridine-3-carboxamide]: the IC50 lay in the range of 5 to 50 µM.

Regarding `CC(C)CNc1cc(=O)n(CC2(O)CCN(C(=O)C[C@@H](C)c3ccccc3)CC2)cn1` [Example 35, (R)-3-((4-Hydroxy-1-(3-phenylbutanoyl)piperidin-4-yl)methyl)-6-(isobutylamino)pyrimidin-4(3H)-one], the IC50 was in the range of 50 to 250 µM.

With `C[C@H](CC1CCCCC1)C(=O)N1CCC(O)(Cn2cc(C(=O)N(C)C)c(Cl)cc2=O)C2(CCCC2)C1` (stereo partly drawn) [Example 144, 4-chloro-1-((7-((R)-3-cyclohexyl-2-methylpropanoyl)-10-hydroxy-7-azaspiro[4.5]decan-10-yl)methyl)-N,N-dimethyl-6-oxo-1,6-dihydropyridine-3-carboxamide], the IC50 is below 0.5 µM.
